Key:
[1] = Solid-state form conversion under crushing or compressing; assay type: physicochemical
[2] = Solid-state stability under normal storage conditions; assay type: physicochemical; settings: typically, but not limited to, temperatures of about 20° C. to about 30° C., relative humidity of about 30% to about 60%

SMILES	conversion into other known solid-state forms of pantoprazole sodium [1]	stability under normal storage conditions [2]
COc1ccnc(C[S+]([O-])c2nc3ccc(OC(F)F)cc3[nH]2)c1OC (centres unmarked) [Form A4, 5-(difluoromethoxy)-2-[[(3,4-dimethoxy-2-pyridinyl)methyl]sulfinyl]-1H-benzimidazole]	does not convert	stable
COc1ccnc(C[S+]([O-])c2nc3ccc(OC(F)F)cc3[nH]2)c1OC (centres unmarked) [Form A3, 5-(difluoromethoxy)-2-[[(3,4-dimethoxy-2-pyridinyl)methyl]sulfinyl]-1H-benzimidazole]	does not convert	stable
COc1ccnc(C[S+]([O-])c2nc3ccc(OC(F)F)cc3[nH]2)c1OC (centres unmarked) [Form A2, 5-(difluoromethoxy)-2-[[(3,4-dimethoxy-2-pyridinyl)methyl]sulfinyl]-1H-benzimidazole]	does not convert	stable
COc1ccnc(C[S+]([O-])c2nc3ccc(OC(F)F)cc3[nH]2)c1OC (centres unmarked) [Form A1, 5-(difluoromethoxy)-2-[[(3,4-dimethoxy-2-pyridinyl)methyl]sulfinyl]-1H-benzimidazole]	does not convert	stable
